Source: US10227342B2 (ARIAD PHARMACEUTICALS, INC., priority 2014, dated 2019)

How the values were obtained:
Assay type in all cases: cell-based
[1] = target: human EGFR exon 20 insertion NPG (H773_V774insNPG) (Homo sapiens, UniProt P00533, INS773NPG, cells depend on it); experiment: Ba/F3-EGFR-Exon20-NPG cell anti-proliferative assay (CellTiter 96 MTS, 72 h); conditions: read-out: EGFR exon 20 NPG insertion IC50
[2] = target: human EGFR exon 20 insertion ASV (V769_D770insASV) (Homo sapiens (Human), UniProt P00533, INS769ASV); experiment: Ba/F3-EGFR-Exon20-ASV cell anti-proliferative assay (CellTiter 96 MTS, 72 h); conditions: Ba/F3-EGFR-Exon20-ASV cells;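 further: Ba/F3 cells bearing the EGFR exon 20 ASV insertion, a line able to proliferate without IL-3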
Procedure: Ba/F3 cells expressing EGFR exon 20 insertions (named Ba/F3-EGFR-Exon20-NPG or Ba/F3-EGFR-Exon20-ASV) can proliferate in the absence of IL-3. The anti-proliferative activity of compounds were determined as follows: BaF3-EGFR-Exon20 cells (NPG or ASV) seeded in 96 well plates (2500 cells/well) were treated with test compound (dissolved in DMSO) at a series of concentrations (4-fold dilution, top concentration: 10,000 nM). The plates were incubated for 72 h in a 37° C. incubator with 5% CO2, and the number of viable cells in each well were measured indirectly by CellTiter 96® Aqueous One Solution Cell Proliferation Assay (Promega) This assay is a colorimetric method for determining the number of viable cells through measurement of their metabolic activity by detection of enzymatic conversion of tetrazolium salts into blue formazan derivatives. Reagent (20 μL) was added into each well, and the plates were returned to the incubator for 2 h. The absorbance in each well was then measured at 490 nm using an Envision plate reader (Perkin Elmer).

[3] = target: Her2 exon 20 YVMA insertion (A775_G776ins YVMA) (Homo sapiens (Human), UniProt P04626, INS775YVMA); experiment: Ba/F3-Her2 Exon20 YVMA cell anti-proliferative assay (CellTiter 96 MTS, 72 h); conditions: Ba/F3-Her2 Exon20 YVMA cells
Text: Ba/F3 cells expressing Her2 Exon20 YVMA insertions (named Ba/F3-Her2 Exon20 YVMA) can proliferate in the absence of IL-3.

[4] = target: human EGFR E746-A750 deletion and T790M Mutation (DT) (Homo sapiens (Human), UniProt P00533, DEL746-750/T790M); experiment: Ba/F3-EGFR-Del/T790M cell anti-proliferative assay (CellTiter 96 MTS, 72 h); conditions: Ba/F3-EGFR-Del/T790M cells; for IC50: read-out: EGFR exon 19 deletion and T790M mutation IC50
Sequence of human EGFR E746-A750 deletion and T790M Mutation (DT) (P00533 other isoform, or with tags, fused parts or gaps T790M/del E746-A750): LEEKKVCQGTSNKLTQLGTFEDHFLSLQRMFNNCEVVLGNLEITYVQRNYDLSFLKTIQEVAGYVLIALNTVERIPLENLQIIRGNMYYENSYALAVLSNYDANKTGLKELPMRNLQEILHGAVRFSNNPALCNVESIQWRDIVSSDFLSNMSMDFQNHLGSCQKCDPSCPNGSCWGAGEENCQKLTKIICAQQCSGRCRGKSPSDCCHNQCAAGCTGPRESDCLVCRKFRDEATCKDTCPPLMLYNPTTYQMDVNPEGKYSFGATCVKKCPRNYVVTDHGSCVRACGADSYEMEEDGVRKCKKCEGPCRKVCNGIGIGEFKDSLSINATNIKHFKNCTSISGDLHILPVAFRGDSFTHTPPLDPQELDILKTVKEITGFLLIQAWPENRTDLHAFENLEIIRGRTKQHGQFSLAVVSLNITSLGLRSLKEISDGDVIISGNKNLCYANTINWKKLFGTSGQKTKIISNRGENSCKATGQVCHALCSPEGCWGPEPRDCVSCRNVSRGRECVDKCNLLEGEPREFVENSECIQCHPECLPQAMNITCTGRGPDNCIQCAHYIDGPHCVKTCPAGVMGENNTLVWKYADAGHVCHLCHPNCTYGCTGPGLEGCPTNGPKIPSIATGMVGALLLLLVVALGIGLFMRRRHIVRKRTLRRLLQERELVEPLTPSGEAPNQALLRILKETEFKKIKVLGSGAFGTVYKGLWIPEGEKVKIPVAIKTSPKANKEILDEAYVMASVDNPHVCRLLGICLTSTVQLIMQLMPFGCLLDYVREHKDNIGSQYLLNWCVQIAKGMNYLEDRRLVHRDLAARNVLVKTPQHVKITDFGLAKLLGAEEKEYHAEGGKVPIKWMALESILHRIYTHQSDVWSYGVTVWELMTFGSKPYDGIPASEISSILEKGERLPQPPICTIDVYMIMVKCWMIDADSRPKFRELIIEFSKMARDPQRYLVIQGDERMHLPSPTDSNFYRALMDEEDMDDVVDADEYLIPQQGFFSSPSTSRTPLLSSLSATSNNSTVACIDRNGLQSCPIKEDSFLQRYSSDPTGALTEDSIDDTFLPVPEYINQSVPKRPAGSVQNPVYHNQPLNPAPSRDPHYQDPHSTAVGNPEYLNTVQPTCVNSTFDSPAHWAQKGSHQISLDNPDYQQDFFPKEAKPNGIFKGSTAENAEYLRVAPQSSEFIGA
Procedure: An expression vector, pLVX-IRES puro (Clontech) coding for human EGFR E746-A750 deletion and T790M Mutation, was transfected into HEK293 cells by the Trans-Lentiviral ORF Packaging System (Thermo Scientific), to produce virus encoding EGFR exon 19 deletion and T790M mutations. […] Ba/F3 cells expressing EGFR E746-A750 deletion and T790M Mutation (named Ba/F3-EGFR-Del/T790M) can proliferate in the absence of IL-3. The anti-proliferative activity of compounds was determined as follows: BaF3-EGFR-Del/T790M cells seeded in 96 well plates (2500 cells/well) were treated with test compound (dissolved in DMSO) at a series of concentrations (4-fold dilution, top concentration: 10,000 nM). The plates were incubated for 72 h in a 37° C. incubator with 5% CO2, and the number of viable cells in each well were measured indirectly by CellTiter 96® Aqueous One Solution Cell Proliferation Assay (Promega; this assay is a colorimetric method for determining the number of viable cells through measurement of their metabolic activity by detection of enzymatic conversion of tetrazolium salts into blue formazan derivatives). Reagent (20 μL) was added into each well, and the plates were returned to the incubator for 2 h. The absorbance in each well was then measured at 490 nm using an Envision plate reader (Perkin Elmer).

Sequence of Her2 exon 20 YVMA insertion (A775_G776ins YVMA) (P04626 other isoform, or with tags, fused parts or gaps ins YVMA behind 775): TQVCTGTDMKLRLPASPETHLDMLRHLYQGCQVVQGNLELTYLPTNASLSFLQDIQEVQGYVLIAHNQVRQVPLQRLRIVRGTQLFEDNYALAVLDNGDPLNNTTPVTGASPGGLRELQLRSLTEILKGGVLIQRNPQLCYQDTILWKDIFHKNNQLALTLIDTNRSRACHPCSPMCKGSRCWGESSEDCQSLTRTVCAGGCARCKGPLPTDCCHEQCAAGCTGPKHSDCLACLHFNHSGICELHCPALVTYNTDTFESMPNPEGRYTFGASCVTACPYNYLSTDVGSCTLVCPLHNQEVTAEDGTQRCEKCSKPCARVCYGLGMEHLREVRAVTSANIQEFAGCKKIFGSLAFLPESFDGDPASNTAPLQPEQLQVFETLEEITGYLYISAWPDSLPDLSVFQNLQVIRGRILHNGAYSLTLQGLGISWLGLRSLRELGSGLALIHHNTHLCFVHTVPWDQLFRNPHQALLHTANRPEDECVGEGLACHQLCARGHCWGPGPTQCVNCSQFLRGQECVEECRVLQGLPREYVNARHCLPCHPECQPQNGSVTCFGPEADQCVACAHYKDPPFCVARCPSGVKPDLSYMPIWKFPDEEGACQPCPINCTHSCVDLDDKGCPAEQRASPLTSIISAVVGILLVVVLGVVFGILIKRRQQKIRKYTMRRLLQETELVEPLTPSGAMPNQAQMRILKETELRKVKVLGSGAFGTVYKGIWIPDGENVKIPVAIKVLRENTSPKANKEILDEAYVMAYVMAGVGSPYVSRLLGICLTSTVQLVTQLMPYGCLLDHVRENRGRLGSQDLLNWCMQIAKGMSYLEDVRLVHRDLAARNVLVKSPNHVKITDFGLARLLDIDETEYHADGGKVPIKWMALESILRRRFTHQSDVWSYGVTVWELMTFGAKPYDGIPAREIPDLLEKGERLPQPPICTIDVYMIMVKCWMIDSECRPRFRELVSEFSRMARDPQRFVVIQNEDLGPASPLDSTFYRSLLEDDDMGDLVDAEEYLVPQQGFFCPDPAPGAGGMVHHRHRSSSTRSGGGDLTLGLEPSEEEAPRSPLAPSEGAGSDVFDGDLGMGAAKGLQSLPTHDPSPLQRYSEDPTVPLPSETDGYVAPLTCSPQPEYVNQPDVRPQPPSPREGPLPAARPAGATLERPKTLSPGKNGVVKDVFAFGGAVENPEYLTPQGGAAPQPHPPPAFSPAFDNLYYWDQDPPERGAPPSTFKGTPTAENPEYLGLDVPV
Sequence of human EGFR exon 20 insertion NPG (H773_V774insNPG) (P00533 with tags, fused parts or gaps INS773NPG limits assumed): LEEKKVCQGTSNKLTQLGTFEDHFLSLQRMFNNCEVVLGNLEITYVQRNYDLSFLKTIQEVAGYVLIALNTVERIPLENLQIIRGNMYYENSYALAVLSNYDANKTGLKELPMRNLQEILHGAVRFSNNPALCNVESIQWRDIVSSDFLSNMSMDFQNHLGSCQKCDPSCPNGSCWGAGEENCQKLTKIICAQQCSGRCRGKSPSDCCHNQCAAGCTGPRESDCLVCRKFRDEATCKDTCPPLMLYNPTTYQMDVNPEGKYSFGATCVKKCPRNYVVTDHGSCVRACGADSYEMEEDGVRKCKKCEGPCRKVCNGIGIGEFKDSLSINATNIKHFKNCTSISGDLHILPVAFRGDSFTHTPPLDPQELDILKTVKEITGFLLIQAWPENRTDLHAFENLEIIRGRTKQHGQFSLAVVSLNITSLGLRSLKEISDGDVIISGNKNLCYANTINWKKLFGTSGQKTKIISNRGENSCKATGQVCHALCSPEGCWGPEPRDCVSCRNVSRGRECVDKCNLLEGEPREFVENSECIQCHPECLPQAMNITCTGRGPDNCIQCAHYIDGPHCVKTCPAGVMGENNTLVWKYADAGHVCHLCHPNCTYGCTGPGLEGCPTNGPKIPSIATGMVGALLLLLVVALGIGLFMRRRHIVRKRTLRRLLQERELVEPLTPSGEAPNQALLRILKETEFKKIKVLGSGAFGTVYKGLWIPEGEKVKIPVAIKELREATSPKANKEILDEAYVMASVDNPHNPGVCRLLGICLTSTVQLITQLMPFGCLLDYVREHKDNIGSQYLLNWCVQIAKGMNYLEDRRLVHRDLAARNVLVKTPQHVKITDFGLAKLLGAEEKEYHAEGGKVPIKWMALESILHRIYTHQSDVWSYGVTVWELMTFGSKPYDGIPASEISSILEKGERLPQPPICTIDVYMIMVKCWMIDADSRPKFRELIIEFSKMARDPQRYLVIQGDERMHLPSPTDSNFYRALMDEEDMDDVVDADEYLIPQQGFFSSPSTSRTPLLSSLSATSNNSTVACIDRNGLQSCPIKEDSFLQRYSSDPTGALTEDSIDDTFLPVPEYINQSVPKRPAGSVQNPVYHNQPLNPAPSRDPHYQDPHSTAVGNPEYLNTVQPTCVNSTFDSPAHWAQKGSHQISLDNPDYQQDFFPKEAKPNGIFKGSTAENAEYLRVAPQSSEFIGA
Sequence of human EGFR exon 20 insertion ASV (V769_D770insASV) (P00533 other isoform, or with tags, fused parts or gaps ins ASV behind 769): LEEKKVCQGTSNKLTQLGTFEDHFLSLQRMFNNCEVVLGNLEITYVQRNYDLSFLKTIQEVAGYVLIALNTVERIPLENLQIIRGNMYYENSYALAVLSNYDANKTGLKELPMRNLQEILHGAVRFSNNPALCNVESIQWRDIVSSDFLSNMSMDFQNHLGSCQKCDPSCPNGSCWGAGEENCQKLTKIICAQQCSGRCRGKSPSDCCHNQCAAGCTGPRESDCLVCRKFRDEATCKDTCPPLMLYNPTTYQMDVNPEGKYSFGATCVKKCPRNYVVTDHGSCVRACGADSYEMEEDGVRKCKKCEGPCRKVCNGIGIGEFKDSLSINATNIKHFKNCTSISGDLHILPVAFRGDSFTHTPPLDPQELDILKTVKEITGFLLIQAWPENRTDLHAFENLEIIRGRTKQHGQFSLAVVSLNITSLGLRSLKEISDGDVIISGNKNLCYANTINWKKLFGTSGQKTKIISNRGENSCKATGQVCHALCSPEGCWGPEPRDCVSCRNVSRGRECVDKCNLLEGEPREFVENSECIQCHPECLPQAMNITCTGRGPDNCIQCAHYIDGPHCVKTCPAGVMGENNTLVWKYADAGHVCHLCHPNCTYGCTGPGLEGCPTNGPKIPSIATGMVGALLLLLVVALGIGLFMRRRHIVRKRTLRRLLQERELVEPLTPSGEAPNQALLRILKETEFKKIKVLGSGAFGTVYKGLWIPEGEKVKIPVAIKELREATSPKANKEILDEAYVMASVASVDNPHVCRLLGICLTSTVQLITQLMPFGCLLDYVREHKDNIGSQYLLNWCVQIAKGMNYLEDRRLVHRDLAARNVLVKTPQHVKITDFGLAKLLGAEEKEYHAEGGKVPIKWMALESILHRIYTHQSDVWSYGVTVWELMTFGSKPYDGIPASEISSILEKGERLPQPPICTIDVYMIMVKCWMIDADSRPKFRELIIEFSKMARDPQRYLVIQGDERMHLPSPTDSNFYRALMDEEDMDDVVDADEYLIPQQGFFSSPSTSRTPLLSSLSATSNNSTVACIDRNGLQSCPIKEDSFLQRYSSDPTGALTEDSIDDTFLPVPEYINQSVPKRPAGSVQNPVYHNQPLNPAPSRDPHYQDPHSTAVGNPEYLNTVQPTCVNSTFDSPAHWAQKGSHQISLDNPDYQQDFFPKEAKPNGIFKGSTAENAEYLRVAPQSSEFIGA

SMILES: C=CC(=O)Nc1cc(Nc2ncc(NC(=O)C(C)(C)C)c(-c3cn(C)c4ccccc34)n2)c(OC)cc1N(C)CCN(C)C [Example 41, N-(2-((2-(dimethylamino)ethyl)-(methyl)amino)-4-methoxy-5-((4-(1-methyl-1H-indol-3-yl)-5-pivalamidopyrimidin-2-yl)amino)phenyl)acrylamide]
- IC50 [1]: 100 to 500 nM
- IC50 [2]: 500 to 1000 nM
- IC50 [3]: > 1000 nM
- IC50 [4]: > 1000 nM

SMILES: C=CC(=O)Nc1cc(Nc2ncc(NC(=O)C(C)(C)C)c(-c3cn(C)c4ccccc34)n2)c(OC)cc1OC [Example 42, N-(2,4-dimethoxy-5-((4-(1-methyl-1H-indol-3-yl)-5-pivalamidopyrimidin-2-yl)amino)phenyl)acrylamide]
- IC50 [1]: > 1000 nM
- IC50 [2]: > 1000 nM
- IC50 [3]: > 1000 nM
- IC50 [4]: > 1000 nM

SMILES: C=CC(=O)Nc1cc(Nc2ncc(Cl)c(-c3cnn4ccccc34)n2)c(OC)cc1OCCN(C)C [Example 51, N-(5-((5-chloro-4-(pyrazolo[1,5-a]pyridin-3-yl)pyrimidin-2-yl)amino)-2-(2-(dimethylamino)ethoxy)-4-methoxyphenyl)acrylamide]
- IC50 [1]: < 100 nM
- IC50 [2]: 100 to 500 nM
- IC50 [3]: 100 to 500 nM
- IC50 [4]: < 100 nM

SMILES: C=CC(=O)Nc1cc(Nc2ncc(Cl)c(-c3cnn4ccccc34)n2)c(OC)cc1N1CCC(N(C)C)C1 (stereo not drawn) [Example 55, N-(5-((5-chloro-4-(pyrazolo[1,5-a]pyridin-3-yl)pyrimidin-2-yl)amino)-2-(3-(dimethylamino)pyrrolidin-1-yl)-4-methoxyphenyl)acrylamide]
- IC50 [1]: 100 to 500 nM
- IC50 [2]: > 1000 nM
- IC50 [3]: > 1000 nM
- IC50 [4]: < 100 nM

SMILES: C=CC(=O)Nc1cc(Nc2ncc(C(=O)OC(C)C)c(-c3nn(C)c4ccccc34)n2)c(OC)cc1N(C)CCN(C)C [Example 59, isopropyl 2-((5-acrylamido-4-((2-(dimethylamino)ethyl)(methyl)amino)-2-methoxyphenyl)amino)-4-(1-methyl-1H-indazol-3-yl)pyrimidine-5-carboxylate]
- IC50 [1]: < 100 nM
- IC50 [2]: < 100 nM
- IC50 [3]: < 100 nM
- IC50 [4]: < 100 nM

SMILES: C=CC(=O)Nc1cc(Nc2ncc(NC(=O)CC)c(-c3nn(C)c4ccccc34)n2)c(OC)cc1N(C)CCN(C)C [Example 60, N-(2-((2-(dimethylamino)ethyl)(methyl)amino)-4-methoxy-5-((4-(1-methyl-1H-indazol-3-yl)-5-propionamidopyrimidin-2-yl)amino)phenyl)acrylamide]
- IC50 [1]: < 100 nM
- IC50 [2]: < 100 nM
- IC50 [3]: > 1000 nM
- IC50 [4]: < 100 nM

SMILES: C=CC(=O)Nc1cc(Nc2ncc(C(=O)OC(C)C)c(-n3ccc4ccccc43)n2)c(OC)cc1N(C)C[C@H]1CCCN1C [Example 61, isopropyl (R)-2-((5-acrylamido-2-methoxy-4-(methyl((1-methylpyrrolidin-2-yl)methyl)amino)phenyl)amino)-4-(1H-indol-1-yl)pyrimidine-5-carboxylate]
- IC50 [1]: < 100 nM
- IC50 [2]: < 100 nM
- IC50 [3]: 100 to 500 nM
- IC50 [4]: < 100 nM

SMILES: C=CC(=O)Nc1cc(Nc2ncc(C(=O)OC(C)C)c(-c3coc4ccccc34)n2)c(OC)cc1N(C)C[C@H]1CCCN1C [Example 62, isopropyl (R)-2-((5-acrylamido-2-methoxy-4-(methyl((1-methylpyrrolidin-2-yl)methyl)amino)phenyl)amino)-4-(benzofuran-3-yl)pyrimidine-5-carboxylate]
- IC50 [1]: < 100 nM
- IC50 [2]: < 100 nM
- IC50 [3]: 100 to 500 nM
- IC50 [4]: < 100 nM

SMILES: C=CC(=O)Nc1cc(Nc2ncc(C(=O)OC)c(-n3ccc4ccccc43)n2)c(OC)cc1N(C)C[C@H]1CCCN1C [Example 63, methyl (R)-2-((5-acrylamido-2-methoxy-4-(methyl((1-methylpyrrolidin-2-yl)methyl)amino)phenyl)amino)-4-(1H-indol-1-yl)pyrimidine-5-carboxylate]
- IC50 [1]: < 100 nM
- IC50 [2]: < 100 nM
- IC50 [3]: 500 to 1000 nM
- IC50 [4]: < 100 nM

SMILES: C=CC(=O)Nc1cc(Nc2ncc(C(=O)OC(C)C)c(-c3c[nH]c4ccccc34)n2)c(OC)cc1N(C)C[C@H]1CCCN1C [Example 64, isopropyl (R)-2-((5-acrylamido-2-methoxy-4-(methyl((1-methylpyrrolidin-2-yl)methyl)amino)phenyl)amino)-4-(1H-indol-3-yl)pyrimidine-5-carboxylate]
- IC50 [1]: < 100 nM
- IC50 [2]: < 100 nM
- IC50 [3]: < 100 nM
- IC50 [4]: < 100 nM

SMILES: C=CC(=O)Nc1cc(Nc2ncc(C(=O)OCC)c(-c3cn(C)c4ccccc34)n2)c(OC)cc1N(C)C[C@H]1CCCN1C [Example 65, ethyl (R)-2-((5-acrylamido-2-methoxy-4-(methyl((1-methylpyrrolidin-2-yl)methyl)amino)phenyl)amino)-4-(1-methyl-1H-indol-3-yl)pyrimidine-5-carboxylate]
- IC50 [1]: < 100 nM
- IC50 [2]: < 100 nM
- IC50 [3]: < 100 nM
- IC50 [4]: < 100 nM

SMILES: C=CC(=O)Nc1cc(Nc2ncc(C(=O)OC)c(-c3cn(C)c4ccccc34)n2)c(OC)cc1C#CCN(C)C [Example 68, methyl 2-((5-acrylamido-4-(3-(dimethylamino)prop-1-yn-1-yl)-2-methoxyphenyl)amino)-4-(1-methyl-1H-indol-3-yl)pyrimidine-5-carboxylate]
- IC50 [1]: < 100 nM
- IC50 [2]: 100 to 500 nM
- IC50 [3]: 500 to 1000 nM
- IC50 [4]: < 100 nM

SMILES: C=CC(=O)Nc1cc(Nc2ncc(C(=O)OC)c(-c3cn(C)c4ccccc34)n2)c(OC)cc1CCCN(C)C [Example 69, methyl 2-((5-acrylamido-4-(3-(dimethylamino)propyl)-2-methoxyphenyl)amino)-4-(1-methyl-1H-indol-3-yl)pyrimidine-5-carboxylate]
- IC50 [1]: < 100 nM
- IC50 [2]: 100 to 500 nM
- IC50 [3]: 500 to 1000 nM
- IC50 [4]: < 100 nM

SMILES: C=CC(=O)Nc1cc(Nc2ncc(C(=O)OC)c(-c3cn(N(C)C)c4ccccc34)n2)c(OC)cc1N(C)CCN(C)C [Example 76, methyl 2-((5-acrylamido-4-((2-(dimethylamino)ethyl)(methyl)amino)-2-methoxyphenyl)amino)-4-(1-(dimethylamino)-1H-indol-3-yl)pyrimidine-5-carboxylate]
- IC50 [1]: < 100 nM
- IC50 [2]: < 100 nM
- IC50 [3]: < 100 nM
- IC50 [4]: < 100 nM

SMILES: C=CC(=O)Nc1cc(Nc2ncc(C(=O)OC(C)C)c(-c3cn(C(C)=O)c4ccccc34)n2)c(OC)cc1N(C)CCN(C)C [Example 78, isopropyl 4-(1-acetyl-1H-indol-3-yl)-2-((5-acrylamido-4-((2-(dimethylamino)ethyl)(methyl)amino)-2-methoxyphenyl)amino)pyrimidine-5-carboxylate]
- IC50 [1]: < 100 nM
- IC50 [2]: < 100 nM
- IC50 [3]: < 100 nM
- IC50 [4]: < 100 nM

SMILES: C=CC(=O)Nc1cc(Nc2ncc(C(=O)OC(C)C)c(-c3cn(C4CC4)c4ccccc34)n2)c(OC)cc1N(C)CCN(C)C [Example 79, isopropyl 2-((5-acrylamido-4-((2-(dimethylamino)ethyl)(methyl)amino)-2-methoxyphenyl)amino)-4-(1-cyclopropyl-1H-indol-3-yl)pyrimidine-5-carboxylate]
- IC50 [1]: < 100 nM
- IC50 [2]: < 100 nM
- IC50 [3]: 100 to 500 nM
- IC50 [4]: < 100 nM

SMILES: C=CC(=O)Nc1cc(Nc2nccc(-c3cn(C)c4cccc(C(=O)OC)c34)n2)c(OC)cc1N(C)CCN(C)C [Example 80, methyl 3-(2-((5-acrylamido-4-((2-(dimethylamino)ethyl)(methyl)amino)-2-methoxyphenyl)amino)pyrimidin-4-yl)-1-methyl-1H-indole-4-carboxylate]
- IC50 [1]: > 1000 nM
- IC50 [2]: > 1000 nM
- IC50 [3]: > 1000 nM
- EGFR exon 19 deletion and T790M mutation IC50 [4]: D (Group D compounds have an IC50 value for the indicated mutant greater than about 1 μM)

SMILES: C=CC(=O)Nc1cc(Nc2nccc(-c3cn(C)c4ccc(C(=O)OC)cc34)n2)c(OC)cc1N(C)CCN(C)C [Example 81, methyl 3-(2-((5-acrylamido-4-((2-(dimethylamino)ethyl)(methyl)amino)-2-methoxyphenyl)amino)pyrimidin-4-yl)-1-methyl-1H-indole-5-carboxylate]
- IC50 [1]: < 100 nM
- IC50 [2]: 100 to 500 nM
- IC50 [3]: 500 to 1000 nM
- IC50 [4]: < 100 nM

SMILES: C=CC(=O)Nc1cc(Nc2nccc(-c3cn(C)c4cc(C(=O)OC)ccc34)n2)c(OC)cc1N(C)CCN(C)C [Example 82, methyl 3-(2-((5-acrylamido-4-((2-(dimethylamino)ethyl)(methyl)amino)-2-methoxyphenyl)amino)pyrimidin-4-yl)-1-methyl-1H-indole-6-carboxylate]
- IC50 [1]: < 100 nM
- IC50 [2]: 100 to 500 nM
- IC50 [3]: 100 to 500 nM
- IC50 [4]: < 100 nM

SMILES: C=CC(=O)Nc1cc(Nc2ncc(C(=O)OC(C)C)c(-c3cnc4ccccn34)n2)c(OC)cc1N(C)CCN(C)C [Example 94, isopropyl 2-((5-acrylamido-4-((2-(dimethylamino)ethyl)(methyl)amino)-2-methoxyphenyl)amino)-4-(imidazo[1,2-a]pyridin-3-yl)pyrimidine-5-carboxylate]
- IC50 [1]: < 100 nM
- IC50 [2]: < 100 nM
- IC50 [3]: < 100 nM
- IC50 [4]: < 100 nM

SMILES: C=CC(=O)Nc1cc(Nc2ncc(C(=O)OC(C)C)c(-n3cc(C)c4ccccc43)n2)c(OC)cc1N(C)CCN(C)C [Example 97, isopropyl 2-((5-acrylamido-4-((2-(dimethylamino)ethyl)(methyl)amino)-2-methoxyphenyl)amino)-4-(3-methyl-1H-indol-1-yl)pyrimidine-5-carboxylate]
- IC50 [1]: < 100 nM
- IC50 [2]: 100 to 500 nM
- IC50 [3]: 100 to 500 nM
- IC50 [4]: < 100 nM
